Common to all, as to format: cell-based, human
Assay [1] concerns H4 cells stably expressing LC3-GFP. Briefly: LC3-GFP autophagosome translocation image-based assay. The conditions noted are these: for autophagy as measured by LC3-GFP translocation: H4 LC3-GFP cells grown in serum-free medium, cytokine 24 hours; for autophagy (autophagosome associated LC3-GFP): H4 LC3-GFP cells in defined medium. The procedure:
(§1) H4 human neuroblastoma cells were cultured under standard tissue culture conditions in DMEM media supplemented with 10% normal calf serum, penicillin/streptomycin, sodium pyruvate (Invitrogen) and, where appropriate, 0.4-1.2 mg/mL G418. LC3-GFP and FYVE-dsRed H4 cells were generated as described in Zhang et al., PNAS, 102, 15545-15550 (2007). To create a stable line expressing Lamp1, H4 cells were transfected with Lamp1-RFP plasmid using TransIT LT1 reagent (Minis), followed by selection with 0.4 mg/mL G418. Bcl-2 expressing cell lines were created by infecting LC3-GFP and FYVE-dsRed H4 cells with pBabe-Bcl-2 retrovirus, followed by selection with […] puromycin.
For the cytokine assays, cells were seeded at 0.5×10^5 in full medium in either 24-well (western) or 96-well (LC3-GFP quantification) plates. After 24 hours, cells were washed in PBS and serum-free OptiMEM medium (Invitrogen) was added along with the indicated growth factors and/or cytokines for an additional 24 hours. Growth factors and cytokines used include human TNFα (Cell Sciences), human LIF (GeneScript Corporation), human FGF2 (ProSpec), human IGF1 (ProSpec), human SDF1 (Prospec) and human CLCF1 (R&D Systems). To induce starvation, cells were cultured for 24 hours in full media, washed in PBS and cultured for additional 4 hours in HBSS bedia (Invitrogen). […]
For high-throughput screens, cells were imaged on an automated CellWoRx microscope (Applied Precision) at 10× magnification using 2 wavelengths (350 nm to detect Hoechst, 488 nm to detect LC3-GFP) for the primary screens and 3 wavelengths (350 nm, 488 nm and 550 nm to detect Lamp1-RFP or FYVE-dsRed) for the secondary screens. All images were quantified using VHSscan and VHSview image analysis software (Cellomics). Total cell number, total LC3-GFP intensity/cell as well as number, area and intensity of LC3-GFP positive autophagosomes/cell were scored. All dead and mitotic cells were excluded from analysis based on nuclear intensity. The final autophagy score for each well was obtained by multiplying the total autophagosome intensity/cell by the number of autophagosomes/cell and dividing by the average cell intensity. This formula was empirically determined to accurately measure LC3-GFP translocation from cytosol into autophagosomes as reflected by consistently significant z-scores and p-values when using siRNAs against mTOR and Atg5 controls. FYVE-dsRed and Lamp1-RFP scores were obtained in a manner similar to LC3-GFP scores, except that for Lamp1-RFP, which measures total accumulation of the reporter rather than its translocation, division by the average cell intensity was omitted.
For low-throughput follow-up analysis, cells were grown on glass cover slips. Following fixation in 4% paraformaldehyde and counterstaining with Hoechst, cover slips were mounted in 50% glycerol, 0.1% n-propyl gallate/PBS. Cells were imaged at 40× magnification on a Nikon Eclipse E800 microscope. Cell numbers, cell area and intensity, as well as autophagosome number and intensity, were quantified using Metamorph software. Autophagy was scored as number of autophagosomes per cell.
Human neuroblastoma H4 cells stably expressing the LC3-GFP reporter were used to identify genes involved in the regulation of autophagy in mammals. […] When autophagy is induced in these cells, LC3-GFP is recruited from the cytosol and can be visualized in a punctate pattern corresponding to autophagosomes. In order to validate the system, cells were transfected with siRNA against either the essential autophagy mediator ATG5 or against mTOR, a suppressor of starvation-induced autophagy. Following 72 hours of incubation under normal nutritional conditions, […].

Assay [2] deals with H4 cells. Briefly: Western blot of autophagy markers (LC3, p62). The conditions noted are these: for autophagy by western blot (LC3II accumulation, LC3 II/tubulin): serum-free medium, 100 ng/mL IGF1, 50 ng/mL FGF2, LIF or CLCF1, 10 μg/mL E64d, with or without 50 nM rapamycin, H4, HEK293, HeLa, MCF7. The protocol: For the cytokine assays, cells were seeded at 0.5×10^5 in full medium in either 24-well (western) or 96-well (LC3-GFP quantification) plates. After 24 hours, cells were washed in PBS and serum-free OptiMEM medium (Invitrogen) was added along with the indicated growth factors and/or cytokines for an additional 24 hours. Growth factors and cytokines used include human TNFα (Cell Sciences), human LIF (GeneScript Corporation), human FGF2 (ProSpec), human IGF1 (ProSpec), human SDF1 (Prospec) and human CLCF1 (R&D Systems). To induce starvation, cells were cultured for 24 hours in full media, washed in PBS and cultured for additional 4 hours in HBSS bedia (Invitrogen).
For western blot analysis, lysosomal protease inhibitor E64d (Sigma) was added at a concentration of 10 μg/mL for the last 8-12 hours before cell lysis.
(§2) For western blots, cells were lysed in Lammeli sample buffer, resolved on a 10-12% SDS-PAGE gel and transferred to PVDF membrane. The following antibodies were used: LC3 (Novus), p62 (Pharmigen), phospho-S6K (Thr389), phospho-Akt (Ser473), phospho-Stat3 (Tyr705), RelA, Sod1, phospho-PTEN (Ser380/Thr382/383) (all Cell Signaling), Bcl-2 (Santa Cruz), all at 1:1000, phospho-S6 (Ser235/236) (Cell Signaling) and phospho-ERK 1/2 (Sigma) at 1:2000, tubulin (Sigma) at 1:5000. Where indicated, blots were quantified using NIH ImageJ64 software.

Assay [3] has as its system H4 cells. Put plainly: Western blot of signalling protein levels and phosphorylation. To be noted: for activating phosphorylation of Stat3: 50 ng/mL LIF or CLCF1.
From the text: as §2
For orientation: A western blot detects proteins with antibodies after separation by electrophoresis.

Another assay relates to type III PI3 kinase. Put plainly: FYVE-dsRed reporter assay of PtdIns3P levels. The protocol:
as §1
For secondary screens, a siRNA library was used in which the 4 siRNAs of each siRNA pool were separated into individual wells. […]
For high-throughput screens, cells were imaged on an automated CellWoRx microscope (Applied Precision) at 10× magnification using 2 wavelengths (350 nm to detect Hoechst, 488 nm to detect LC3-GFP) for the primary screens and 3 wavelengths (350 nm, 488 nm and 550 nm to detect Lamp1-RFP or FYVE-dsRed) for the secondary screens. All images were quantified using VHSscan and VHSview image analysis software (Cellomics). Total cell number, total LC3-GFP intensity/cell as well as number, area and intensity of LC3-GFP positive autophagosomes/cell were scored. […]
A general note: A reporter such as luciferase makes a cellular process visible.

Setting [4] is: 100 ng/mL IGF1 plus Akt inhibitor VIII.

Entries after “also recorded” stand apart in the source; their conditions may differ.

Regarding “LIF: human LIF (GeneScript Corporation); leukemia inhibitory factor”, in assay [1], the “autophagy as measured by LC3-GFP translocation” value (shortened to “autophagy as measured”) is on record as “significant down-regulation of autophagy”. Further, the “autophagy by western blot (LC3II accumulation, LC3 II/tubulin)” value (“autophagy by western blot” for short) in the assay on H4 cells [2] was “suppress autophagy in the absence and presence of rapamycin”. In the assay with H4 cells [3], the “activating phosphorylation of Stat3” value was “increased activating phosphorylation of Stat3”.

With `N#CC(=C(/N)Sc1ccccc1N)/C(C#N)=C(/N)Sc1ccccc1N` [UO126, reference compound], the “effect on inhibition of autophagy by FGF2 (LC3 western)” value in the assay with H4 cells [2] (H4 cells, serum-free media, 50 ng/mL FGF2, 10 μg/mL E64d, UO126 pre-treatment) was “attenuated inhibition of autophagy; also recorded: prevented”.

As for `CC(=O)N[C@@H](CS)C(=O)O` [NAC, N-acetyl-L-cysteine, reference compound], the “effect on induction of autophagy caused by knock-down of Sod1” value in assay [1] (H4 LC3-GFP cells, 2.5 mM NAC) is reported as “significantly attenuated”. In assay [1] (RelA deficient H4 cells, 2.5 mM NAC), the “effect on elevated induction of autophagy in response to starvation” value is “attenuated”. For the same molecule, the “effect on Aβ-induced accumulation of PtdIns3P” value in the assay with type III PI3 kinase (with antioxidant NAC) was “suppressed”.

Regarding “FGF2: human FGF2 (ProSpec); fibroblast growth factor 2 (basic)”, the “autophagy as measured” value in assay [1] was “significant down-regulation of autophagy”. In addition, in the assay with H4 cells [2], the “autophagy by western blot” value is “suppress autophagy in the absence and presence of rapamycin”. The “level of phospho-ERK1/2 and phospho-RSK” value in the assay on H4 cells [3] (H4 cells, serum-free media, 50 ng/mL FGF2) is on record as “increased level”.

Consider `O=c1[nH]c2ccccc2n1C1CCN(Cc2ccc(-c3nc4cc5[nH]cnc5cc4nc3-c3ccccc3)cc2)CC1` [Akt inhibitor VIII, reference compound], for which the “effect on inhibition of autophagy by IGF1” value in the assay on H4 cells [2] (setting [4]) was “prevented inhibition of autophagy”. In the assay on H4 cells [3] (setting [4]), the “phosphorylation of Foxo3a and S6 kinase” value is “attenuated phosphorylation”.

Consider `Cn1cnc(=N)c2[nH]cnc21` [3MA, reference compound], for which the “effect on induction of autophagy in response to Aβ” value in assay [1] (H4 GFP-LC3 cells, 3MA) was “attenuate induction of autophagy”. Besides, the “effect on Aβ-induced accumulation of PtdIns3P” value with type III PI3 kinase (3MA 10 mM, 8 hours prior to fixation) is given as “suppressed”.

For TNFα, the results for the “autophagy (autophagosome associated LC3-GFP)” value in assay [1] (higher doses of TNFα) and in assay [1] (low doses of TNFα) were “up-regulation of autophagy” and “down-regulation of autophagy”, respectively. Moreover, in the assay on H4 cells [2] (low levels of TNFα (5 ng/ml), nutrient deprivation), the “p62 level by western blot” value is reported as “significant accumulation of p62”.

In the case of “SDF1: human SDF1 (Prospec); chemokine SDF1 (CXCL12)”, in assay [1], the “autophagy as measured” value is listed as “significant down-regulation of autophagy”.

As for “IGF1: human IGF1 (ProSpec); insulin-like growth factor 1”, the “autophagy as measured” value in assay [1] is “significant down-regulation of autophagy”. For the same molecule, the “autophagy by western blot” value in the assay on H4 cells [2] was “suppress autophagy in the absence and presence of rapamycin”. Besides, the “phosphorylation of Akt and Foxo3a” value with H4 cells [3] (IGF-1 treatment, absence and presence of rapamycin) was “increased”.

B1: CLCF1: human CLCF1 (R&D Systems); cardiotrophin-like cytokine factor 1 (protein, UniProt Q9UBD9 28-225, looked up)
Cardiotrophin-like cytokine …: LNRTGDPGPGPSIQKTYDLTRYLEHQLRSLAGTYLNYLGPPFNEPDFNPPRLGAETLPRATVDLEVWRSLNDKLRLTQNYEAYSHLLCYLRGLNRQAATAELRRSLAHFCTSLQGLLGSIAGVMAALGYPLPQPLPGTEPTWTPGPAHSDFLQKMDDFWLLKELQTWLWRSAKDFNRLKKKMQPPAAAVTLHLGAHGF
With B1, the “autophagy as measured” value in assay [1] is “significant down-regulation of autophagy”. Besides, in the assay on H4 cells [2], the “autophagy by western blot” value was “suppress autophagy in the absence and presence of rapamycin”. For the same molecule, the “activating phosphorylation of Stat3” value in the assay with H4 cells [3] is given as “increased activating phosphorylation of Stat3”.

The record behind these values is patent US20160194631A1, “Methods for Modulation of Autophagy Through the Modulation of Autophagy-Inhibiting Gene Products” (Harvard Medical School, priority 2009, published 2016).
